The source of these data is patent US8980954B2, “Substituted cis- and trans-stilbenes as therapeutic agents” (STC.UNM, priority 2006, dated 2015).

SMILES strings stand for the structures.

Test [1] deals with AP-1. As to the kind of experiment: Inhibition of the TPA-induced activation of AP-1, 293T/AP-1-luc luciferase reporter cell assay. It counts as cell-based, human. To be noted: 293T/AP-1-luc cells, TPA 10 ng/ml, 24 hours; for IC50: Homo sapiens. The method, then:
An AP-1 reporter stable cell line derived from human 293T embryonic kidney cells transfected with a luciferase reporter construct containing three AP-1 binding sites in the promoter (293T/AP-1-luc, Panomics, Inc., Redwood City, Calif.) was grown in a humidified atmosphere at 37° C. in 5% CO2/95% air. The cells were maintained in Dulbecco's Modified Eagle's Medium (DMEM—high glucose containing 4 mM glutamine) supplemented with 10% fetal bovine serum (FBS), 1 mM sodium pyruvate, 100 units/ml penicillin, 100 μg/ml streptomycin and 100 μg/ml hygromycin (Gibco/Invitrogen, Carlsbad, Calif.) to maintain cell selection. One day prior to treatment, the 293T/AP-1-luc cells were plated into 24-well cell culture plates (Costar, Cambridge, Ma.) in the above media without hygromycin. The following day, the cells, which were at approximately 60% confluency, were fed fresh media with or without TPA, 10 ng/ml, (Calbiochem) and immediately treated with curcumin or analog prepared in DMSO stock solutions. The cells were placed again in a humidified atmosphere at 37° C. in 5% CO2/95% air for 24 hours. Plate wells were gently washed with phosphate buffered saline, pH 7.4, and lysed with 1x passive lysis buffer (Promega, Madison, Wis.). The subsequent lysates were analyzed with the Luciferase Assay System (Promega) utilizing a TD-20/20 luminometer (Turner Designs, Sunnyvale, Calif.). The firefly luciferase relative light units were normalized to protein (mg/ml) with BCA™ Protein Assay Kit (Pierce, Rockford, Ill.) and standardized to percent of control (TPA control).
Background: In a reporter assay the amount or activity of a reporter protein is the signal.

Test [2] deals with NF-κB. Nature of the test: Inhibition of the TNFα-induced activation of NF-κB, 293T/NF-κB-luc luciferase reporter cell assay. It counts as cell-based, human. To be noted: 7 hours; for activity as inhibitor of the TNFα-induced activation of NF-κB in the preliminary screen: screened at 15 μM, FIGS. 1-5; for IC50: Homo sapiens, HEK-293T, 293T/NF-κB-luc cells, TNFα 20 ng/ml, triplicate, read-out: IC50 for inhibition of the TNFα-induced activation of NFκB. The method, then: The cells were maintained in Dulbecco's Modified Eagle's Medium (DMEM—high glucose containing 4 mM glutamine) supplemented with 10% fetal bovine serum (FBS), 1 mM sodium pyruvate, 100 units/ml penicillin, 100 μg/ml streptomycin and 100 μg/ml hygromycin (Gibco/Invitrogen, Carlsbad, Calif.) to maintain cell selection. […] The following day cells were fed fresh media 1 hour prior to treatment. […] Plate wells were gently washed with phosphate buffered saline, pH 7.4, and lysed with 1x passive lysis buffer (Promega, Madison, Wis.). The subsequent lysates were analyzed with the Luciferase Assay System (Promega) utilizing a TD-20/20 luminometer (Turner Designs, Sunnyvale, Calif.). The firefly luciferase relative light units were normalized to protein (mg/ml) with BCA™ Protein Assay Kit (Pierce, Rockford, Ill.) and standardized to percent of control (TNFα control).

Test [3] is described as follows: TRAP assay (total radical-trapping anti-oxidant parameter). The text has this: (§1) The total radical-trapping anti-oxidant parameter assay (TRAP assay) measures the ability of an analog to react with the pre-formed radical monocation of 2,2′-azinobis-(3-ethylbenzothiazoline-6-sulfonic acid) (ABTS-^+). The ferric reducing/anti-oxidant power assay (FRAP assay) measures the ability of an analog to reduce a ferric tripyridyltriazine complex.
(§2) In both colorimetric assays, the vitamin E analog Trolox was used as a control.
(§3) The anti-oxidant activities of certain stilbene analogs according to the present invention were determined using two standard assays. See, Schlesier, et al., Free Rad Res. 2002;36:177-187. The total radical-trapping anti-oxidant parameter assay (TRAP assay) measures the ability of an analog to react with the pre-formed radical monocation of 2,2′-azinobis-(3-ethylbenzothiazoline-6-sulfonic acid) (ABTS^+). See, Re, et al., Free Rad Biol Med, 26:1231-1237 (1999). ABTS was reacted with potassium persulfate in the dark, overnight, to generate the colored ABTS^+ radical cation, which has an absorption maximum at 734 nm. The activities of curcumin and analogs were determined by their abilities to quench the color of the radical cation. The ferric reducing/anti-oxidant power assay (FRAP assay) measures the ability of an analog to reduce a ferric tripyridyltriazine complex. See, Benzie and Strain, Meth Enzymol, 299:15-27 (1999). The ferric complex of 2,4,6-tripyridyl-s-triazine was prepared at acidic pH, and the anti-oxidant activities of curcumin and analogs were determined by their abilities to reduce the ferric complex to the ferrous complex, monitored by formation of the ferrous complex at 593 nm. In both colorimetric assays, the vitamin E analog Trolox was used as a control.

Test [4] is described as follows: FRAP assay (ferric reducing/anti-oxidant power).
Text: as §1, §2
as §3, with “ABTS was reacted with potassium persulfate in the dark, overnight, to generate the colored ABTS^+ radical cation, which has an absorption maximum at 734 nm.” left out, “The ferric reducing/anti-oxidant power assay (FRAP assay) measures the ability of an analog to reduce a ferric tripyridyltriazine complex. See, Benzie and Strain, Meth Enzymol, 299:15-27 (1999).” left out, “In both colorimetric assays, the vitamin E analog Trolox was used as a control.” left out

Test [5] relates to COX-2 mRNA. As to the kind of experiment: Inhibition of LPS-induced expression of COX-2 mRNA in BV-2 microglial cells (qRT-PCR). Format: cell-based, mouse. To be noted: BV-2 cells, LPS 0.2 μg/ml, 24 hours; for inhibition of LPS-induced COX-2 mRNA compared with resveratrol: 0.15 μM. For orientation: In qPCR the cycle at which signal appears reflects the starting amount.
The test system of test [6] is NF-κB. To be noted: cited from earlier work.

What is called IC50 is the point on the concentration scale where inhibition reaches its midpoint. `COc1ccc(/C=C/c2ccccn2)cc1` displayed an IC50 in test [1] of 2100 ± 400 nM.
Regarding `COc1ccc(/C=C/c2ccccc2)cc1` [4b, (E)-4-Methoxystilbene], the “activity as inhibitor of the TNFα-induced activation of NF-κB in the preliminary screen” value (“activity as inhibitor” for short) in test [2] was “especially active”. This molecule returned an IC50 in test [1] of 1300 ± 30 nM.
As for `CN(C)c1ccc(/C=C/c2ccccc2)cc1` [4cc, (E)-4-N,N-Dimethylaminostilbene], in test [2], the IC50 came out at 150 nM. The molecule also displayed an IC50 in test [1] of 1100 ± 100 nM. Also, in test [3], the “anti-oxidant activity in the TRAP assay” value was “exhibits anti-oxidant activity” and the “anti-oxidant activity (TRAP or FRAP assay, not told apart)” value was “retained anti-oxidant activity”. The “anti-oxidant activity in the FRAP assay” value in test [4] was “exhibits anti-oxidant activity”. For the same molecule, the “inhibition of LPS-induced COX-2 mRNA compared with resveratrol” value in test [5] was “almost as effective as 4 μM resveratrol”.
In turn, `Cc1ccc(/C=C/c2ccccc2)cc1` [4d, (E)-4-Methylstilbene] returned an IC50 in test [1] of 1600 ± 600 nM.
In turn, `CCOc1ccc(/C=C/c2ccccc2)cc1` [4k, (E)-4-Ethoxystilbene] registered an IC50 in test [1] of 800 ± 100 nM.
With `COc1cccc(/C=C/c2ccccc2)c1OC` [4o, (E)-2,3-Dimethoxystilbene], the “activity as inhibitor” value in test [2] is “retained very little activity”.
Still for that read-out and setting: the entry for `COc1ccc(/C=C/c2ccccc2)cc1O` [4s, (E)-3-Hydroxy-4-methoxystilbene] is “considerably more active than resveratrol”; for `COc1ccc(/C=C/c2ccccc2)c(OC)c1` [4u, (E)-2,4-Dimethoxystilbene] it is “especially active”.
Still for that read-out and setting: the entry for `COc1ccc(/C=C/c2ccc(OC)cc2)cc1` [6b, (E)-4,4′-Dimethoxystilbene] is “retained very little activity”; for `COc1ccc(/C=C/c2cccc(O)c2O)cc1` [6cc, (E)-2,3-Dihydroxy-4′-methoxystilbene] it is “considerably more active than resveratrol”.
For `COc1ccc(/C=C/c2ccc(C)cc2)cc1` [6d, (E)-4′-Methoxy-4-methylstilbene], the IC50 in test [2] came to 900 ± 100 nM; in test [1] it was 800 ± 30 nM.
`COc1ccc(/C=C/c2cc(OC)cc(OC)c2)cc1` [6f, (E)-3,4′,5-Trimethoxystilbene]: the “activity as inhibitor” value in test [2] is “especially active”. The midpoint of inhibition in test [1], the IC50, lay at 3800 ± 1100 nM.
For the molecule `COc1ccc(/C=C/c2cccc(Cl)c2)cc1` [6h, (E)-3-Chloro-4′-methoxystilbene], the IC50 in test [2] was 1000 ± 100 nM; in test [1], 800 ± 150 nM.
On the same counts, the results for `COc1ccc(/C=C/c2cccc(C)c2)cc1` [6i, (E)-4′-Methoxy-3-methylstilbene] are 800 ± 200 nM and 1000 ± 120 nM.
In the case of `COc1ccc(/C=C/c2ccccc2Cl)cc1` [6j, (E)-2-Chloro-4′-methoxystilbene], the IC50 in test [2] turned out to be 1500 ± 30 nM.
In the case of `COc1ccc(/C=C/c2cccc(F)c2)cc1` [6n, (E)-3-Fluoro-4′-methoxystilbene], in test [1], the midpoint of inhibition, the IC50, lay at 500 ± 100 nM.
As to `COc1ccc(/C=C/c2cccc(OC)c2OC)cc1` [6o, (E)-2,3,4′-Trimethoxystilbene], the “activity as inhibitor” value in test [2] is “especially active”. In test [1], this molecule had an IC50 of 2400 ± 700 nM.
With `COc1ccc(/C=C/c2ccccc2F)cc1` [6p, (E)-2-Fluoro-4′-methoxystilbene], the IC50 in test [2] came out at 150 nM; in test [1], 800 ± 100 nM. Also, the “anti-oxidant activity (TRAP or FRAP assay, not told apart)” value in test [3] is “does not exhibit anti-oxidant activity”. Besides, in test [5], the “inhibition of LPS-induced COX-2 mRNA compared with resveratrol” value was “almost as effective as 4 μM resveratrol”.
For the molecule `COc1ccc(/C=C/c2cccc(OC)c2)cc1` [6r, (E)-3,4′-Dimethoxystilbene], in test [2], the IC50 turned out to be 600 ± 100 nM and the “activity as inhibitor” value is given as “especially active”. The IC50 in test [1] worked out at 700 ± 40 nM.
Take `COc1ccc(/C=C/c2ccc(O)c(O)c2)cc1` [6x, (E)-3,4-Dihydroxy-4′-methoxystilbene]: in test [2], the IC50 stood at 600 ± 400 nM and the “activity as inhibitor” value is “considerably more active than resveratrol”.
`Oc1ccc(/C=C/c2cc(O)cc(O)c2)cc1` [resveratrol, 3,4′,5-trihydroxystilbene, reference compound]: the IC50 in test [2] came to 20000 ± 3000 nM. Besides, the “effect on TPA-induced AP-1 activation” value in test [1] was “activated”. In test [6], the “inhibition of TNF-induced activation of NF-κB (literature)” value is recorded as “inhibits TNF-induced activation of NF-κB”. Besides, in test [5] (4 μM), the “inhibition of LPS-induced COX-2 mRNA” value is on record as “about 50%”. Also, in test [5] (20 μM), the “suppression of LPS-induced COX-2 mRNA” value is reported as “markedly suppressed”.
As to `C(=Cc1ccccc1)c1ccccc1` [stilbene], the “inhibition of TNF-induced activation of NF-κB (literature)” value in test [6] is “inactive”.
